# Laboratory results from ChEMBL document CHEMBL6078649, “Discovery of Chalcone Derivatives as Bifunctional Molecules with Anti-SARS-CoV-2 and Anti-inflammatory Activities” (J Nat Prod, 2024).
# pIC50, pKi: −log10 of the molar value. Calls of active or inactive are those of the source. No cut-off for these calls is given here.
# How the values were obtained:
# [1] = target: Replicase polyprotein 1ab (Severe acute respiratory syndrome coronavirus 2) (UniProt P0DTD1); experiment: Inhibition of SARS-CoV-2 3CLPro using DabcylKNSTLQSGLRK-Edans as substrate at 5 uM preincubated for 30 mins followed by substrate addition measured after 20 mins by FRET assay relative to control; conditions: time 50.0 min
# [2] = target: Replicase polyprotein 1ab (Severe acute respiratory syndrome coronavirus 2) (UniProt P0DTD1); experiment: Inhibition of SARS-CoV-2 3CLPro using DabcylKNSTLQSGLRK-Edans as substrate at 50 uM preincubated for 30 mins followed by substrate addition measured after 20 mins by FRET assay relative to control; conditions: time 50.0 min
# [3] = Cytotoxicity against human Huh-7 cells harboring viral replicon/EGFP/Neo genes assessed as cell viability at 5 uM incubated for 24 hrs by Cell Titer Glo assay relative to control; type: toxicity, cell-based; conditions: read-out: Activity
# [4] = Cytotoxicity against human Huh-7 cells harboring viral replicon/EGFP/Neo genes assessed as cell viability at 50 uM incubated for 24 hrs by Cell Titer Glo assay relative to control; type: toxicity, cell-based; conditions: read-out: Activity
# [5] = Cytotoxicity against human Huh-7 cells harboring viral replicon/EGFP/Neo genes assessed as cell viability incubated for 24 hrs by Cell Titer Glo assay; type: toxicity, cell-based
# [6] = target: T1, Replicase polyprotein 1ab (Severe acute respiratory syndrome coronavirus 2, UniProt P0DTD1); experiment: Inhibition of SARS-CoV-2 3CLPro using DabcylKNSTLQSGLRK-Edans as substrate measured after 3 mins by FRET assay
# [7] = target: T1, Replicase polyprotein 1ab; experiment: Inhibition of SARS-CoV-2 3CLPro using DabcylKNSTLQSGLRK-Edans as substrate measured after 60 mins by FRET assay
# [8] = target: Replicase polyprotein 1ab (Severe acute respiratory syndrome coronavirus 2) (UniProt P0DTD1); experiment: (§1) Mixed inhibition of SARS-CoV-2 3CLPro using DabcylKNSTLQSGLRK-Edans as substrate by FRET assay
# [9] = target: T1, Replicase polyprotein 1ab; experiment: as §1
# [10] = target: Replicase polyprotein 1ab (Severe acute respiratory syndrome coronavirus 2) (UniProt P0DTD1); experiment: Covalent binding affinity to SARS-CoV-2 3CLPro at 90 uM by MS analysis
# [11] = target: Cathepsin B (Homo sapiens) (UniProt P07858); experiment: Inhibition of CTSB (unknown origin) using Z-Phe-ArgAMC as substrate at 10 uM preincubated for 30 mins followed by substrate addition by fluorescence based analysis
# [12] = target: Procathepsin L (Homo sapiens) (UniProt P07711); experiment: Inhibition of CTSL (unknown origin) using Z-Phe-ArgAMC as substrate at 10 uM preincubated for 30 mins followed by substrate addition by fluorescence based analysis
# Procathepsin L (Homo sapiens), sequence (P07711 114-333 limits assumed): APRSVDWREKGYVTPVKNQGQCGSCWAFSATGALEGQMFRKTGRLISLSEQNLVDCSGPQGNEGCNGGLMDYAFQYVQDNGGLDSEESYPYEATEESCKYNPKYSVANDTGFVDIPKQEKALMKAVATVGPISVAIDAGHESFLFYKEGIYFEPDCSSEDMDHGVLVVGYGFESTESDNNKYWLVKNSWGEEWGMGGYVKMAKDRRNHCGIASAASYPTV
# [13] = target: T2, Chymotrypsin-C (Homo sapiens) (UniProt Q99895); experiment: Inhibition of human CTRC using succinyl-Ala-Ala-Pro-Phe-p-nitroanilide as substrate at 10 uM preincubated for 30 mins followed by trypsin treatment for 1 hr and subsequent addition of substrate by absorbance based assay
# T2 sequence (whole entry): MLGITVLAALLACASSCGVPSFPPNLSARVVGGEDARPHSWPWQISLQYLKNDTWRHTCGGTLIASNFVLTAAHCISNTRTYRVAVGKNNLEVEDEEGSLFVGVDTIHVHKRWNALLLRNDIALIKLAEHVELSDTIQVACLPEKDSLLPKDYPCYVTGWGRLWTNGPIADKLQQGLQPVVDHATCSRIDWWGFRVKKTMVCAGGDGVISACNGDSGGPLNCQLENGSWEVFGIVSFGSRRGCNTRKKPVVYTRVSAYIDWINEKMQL
# [14] = target: Transmembrane protease serine 2 (Homo sapiens) (UniProt O15393); experiment: Inhibition of TMPRSS2 (unknown origin) using Boc-GIn-Ala-Arg-AMC as substrate at 10 uM preincubated for 60 mins followed by substrate addition by fluorescence based assay
# Transmembrane protease serine 2 (Homo sapiens), sequence (O15393 1-255 limits assumed): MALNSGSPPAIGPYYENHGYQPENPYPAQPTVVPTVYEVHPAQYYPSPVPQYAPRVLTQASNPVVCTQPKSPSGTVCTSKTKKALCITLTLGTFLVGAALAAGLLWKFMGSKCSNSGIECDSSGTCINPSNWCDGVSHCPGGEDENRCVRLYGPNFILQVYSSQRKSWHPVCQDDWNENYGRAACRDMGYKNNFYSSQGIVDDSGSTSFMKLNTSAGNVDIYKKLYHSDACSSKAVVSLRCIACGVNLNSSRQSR
# Transmembrane protease serine 2 (Homo sapiens), sequence (O15393 256-492 limits assumed): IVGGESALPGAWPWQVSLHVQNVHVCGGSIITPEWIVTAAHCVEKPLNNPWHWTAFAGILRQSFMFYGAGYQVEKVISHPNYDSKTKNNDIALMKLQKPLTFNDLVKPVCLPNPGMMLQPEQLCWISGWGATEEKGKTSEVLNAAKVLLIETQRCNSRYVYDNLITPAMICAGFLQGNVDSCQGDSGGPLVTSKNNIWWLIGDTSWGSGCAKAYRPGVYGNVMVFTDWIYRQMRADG
# KHOS/NP = experiment: Inhibition of cell proliferation of human KHOS/NP cells at 10 uM; type: functional, cell-based
# SJSA-1 = experiment: Inhibition of cell proliferation of human SJSA-1 cells at 10 uM; type: functional, cell-based
# HOS-TE85 = experiment: Inhibition of cell proliferation of human MNNG/HOS cells at 10 uM; type: functional, cell-based
# 143B = experiment: Inhibition of cell proliferation of human 143B cells at 10 uM; type: functional, cell-based
# MGC-803 = experiment: Inhibition of cell proliferation of human MGC-803 cells at 10 uM; type: functional, cell-based
# GES1 = experiment: Inhibition of cell proliferation of human GES1 cells at 10 uM; type: functional, cell-based
# RAW264.7 [15] = experiment: Anti-inflammatory activity against mouse RAW264.7 cells assessed as inhibition of LPS-induced NO production at 1 uM preincubated for 1 hr followed by LPS treatment measured after 24 hrs relative to control; type: functional; conditions: time 25 hrs
# RAW264.7 [16] = experiment: Anti-inflammatory activity against mouse RAW264.7 cells assessed as inhibition of LPS-induced NO production at 10 uM preincubated for 1 hr followed by LPS treatment measured after 24 hrs relative to control; type: functional; conditions: time 25 hrs
# [17] = Cytotoxicity against mouse RAW264.7 cells assessed as cell viability at 1 uM incubated for 24 hrs by CCK8 assay relative to control; type: toxicity, cell-based; conditions: read-out: Activity
# [18] = Cytotoxicity against mouse RAW264.7 cells assessed as cell viability at 10 uM incubated for 24 hrs by CCK8 assay relative to control; type: toxicity, cell-based; conditions: read-out: Activity
# [19] = Cytotoxicity against mouse RAW264.7 cells assessed as cell viability at 50 uM incubated for 24 hrs by CCK8 assay relative to control; type: toxicity, cell-based; conditions: read-out: Activity
# [20] = target: T1, Replicase polyprotein 1ab
Structure (SMILES),inhibition [1] [%],inhibition [2] [%],"viability at 24 h, 5 µM [3] [%]","viability at 24 h, 50 µM [4] [%]",CC50 at 24 h [5] [nM],pIC50 [6],pIC50 [7],Activity [10],inhibition [11],inhibition [12],inhibition [13],inhibition [14],inhibition at 1 µM (RAW264.7 [15]) [%],inhibition at 10 µM (RAW264.7 [16]) [%],"viability at 24 h, 1 µM [17] [%]","viability at 24 h, 10 µM [18] [%]","viability at 24 h, 50 µM [19] [%]",pIC50 [20],further results
O=C(/C=C/c1c(Cl)c(O)c(O)c(O)c1Cl)c1ccc(F)cc1,0.8,-0.1,104,50,41200,6.68,6.96,inactive,inactive,inactive,Active,Active,29.1,81.1,93.7,48.6,114,7.08,inhibition [8]: Dose-dependent-effect; The Result Suggests That Compound May Bind To Both Enzymatic Active Site And Allosteric Sites; pKi [9]: 6.70; inhibition (KHOS/NP): inactive; inhibition (SJSA-1): inactive; inhibition (HOS-TE85): inactive; inhibition (143B): inactive; inhibition (MGC-803): inactive; inhibition (GES1): inactive
O=C(/C=C/c1cc(O)c(O)c(O)c1)c1ccc(F)cc1,2.5,0.5,95.2,63.4,> 50000,6.34,7.03,Active,inactive,inactive,Active,inactive,4.2,68.6,116,109,100,6.58,pKi [20]: 6.10
